Data: EP0619297B1, “Fungicides for the control of take-all desease of plants” (MONSANTO COMPANY, priority 1993, dated 1994)
≈ marks a conversion by molar mass, not a printed value. Read-outs that look alike come from different tables or passages of the source.

Key:
[1] = tested on: Gaeumannomyces graminis var. tritici (Ggt); assay: In vitro assay: mycelial growth on minimal media agar plates (Percent Inhibition; IC50); type: cell-based; details: for inhibition at 0.1 ppm: read-out: In vitro(ppm) 0.1, Percent Inhibition; for inhibition at 1 ppm: read-out: In vitro(ppm) 1, Percent Inhibition; for inhibition at 10 ppm: read-out: In vitro(ppm) 10, Percent Inhibition; for IC50: interpolated from percent inhibition at 1, 0.1, 0.01, 0.001 and 0.0001 ppm
Procedure: The test compounds (0.25 mL of an appropriate stock solution in acetone) are incorporated into 25 mL minimal media agar [prepared by autoclaving a solution of 17.5 g Czapek Dox broth (Difco), 7.5 g purified agar or Bacto-agar (Difco), and 500 mL distilled/deionized water, and then adding 50 µL of 1 mg/mL thiamine hydrochloride and 50 µL of 1 mg/mL biotin in 5% ethanol] and plates are prepared.
Each plate is inoculated by placing in a triangular shape three 4-mm plugs of Gaeumannomyces graminis var. tritici (Ggt) grown on the minimal media agar described above. The plates are incubated in the dark at 19 - 20 °C for 4 to 5 days. The growth of the fungus is measured as the diameter of the mycelial growth. The result is expressed as Percent Inhibition, calculated as [1 - [(mm growth on treated plate - 4)/(mm growth on control plate - 4)]] x 100.
To determine IC5O values, an in vitro assay was run on each compound at the concentrations of 1, 0.1, 0.01, 0.001, and 0.0001 ppm. The percent inhibition was calculated for each concentration using the equation described in the in vitro assay under the section on Biological Assays. Using the two ordered pairs of (concentration, % inhibition) that bracket 50% inhibition of fungal growth, the concentration for 50% inhibition is calculated from the following equation. IC50 = [(50-I2 )C1 + (I1 -50)C2 ]/(I1 -I2 ), [formula] where C1 = 10C2.

Ggt = assay: In vivo assay: control of Ggt on wheat in 3-inch pots with infested soil, rated after four weeks;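 for In vivo(ppm) 0.1, percent disease control: rate is mg active ingredient per pot in 3 mL solution not ppm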;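 for In vivo(ppm) 0.5, percent disease control: rate is mg active ingredient per pot in 3 mL solution not ppm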; design: species or system Gaeumannomyces graminis var. tritici; details: Gaeumannomyces graminis, 672 h; for pest or weed control at 0.02 mg/pot: read-out: In vivo(ppm) 0.02mg/pot, percent disease control; for pest or weed control at 0.1 mg/pot: read-out: In vivo(ppm) 0.1, percent disease control; for pest or weed control at 0.5 mg/pot: read-out: In vivo(ppm) 0.5, percent disease control
Procedure: Compounds are tested for control of Ggt on 'Bergen' or 'Anza' varieties of wheat grown in 3-inch square pots containing soil infested with Ggt. The infestation is accomplished by mixing the soil with an inoculum prepared by growing Ggt on 1/4 strength potato dextrose agar (4.875 g potato dextrose agar, 5.0 g Bacto agar, 500 mL distilled, deionized water) in plates and using plugs from the plates to infest sterile oats (400 cc whole oats, 350 mL deionized water, autoclaved). After a one-month incubation period at room temperature, the oats are dried and mixed with the soil at 4% v/v. Four wheat seeds are placed on top of the soil in each pot. […] Five pots are used for each treatment level and the controls, which are untreated, inoculated and non-inoculated pots. After one hour drying time, the seeds are covered with more of the appropriate soil and a layer of vermiculite. The pots are placed in a growth chamber and watered each day. After four weeks, each pot is evaluated for evidence of disease by examination of the seminal roots of each plant under a dissecting microscope. A 0 to 5 rating scale having the following meanings is used: • 0 = no runner hyphae or lesions present • 1 = runner hyphae and a few small lesions present on <10% of root system • 2 = runner hyphae and small lesions present on 10 - 25% of root system • 3 = runner hyphae and lesions present on 25 - 50% of root system • 4 = runner hyphae and many, large, coalescing lesions on >50% of root system • 5 = root system and culm completely inundated with lesions and runner hyphae
From each set of five replicates a high or low score may be eliminated to assure the best representative scores are used to calculate a replicate mean by averaging the remaining scores. This mean score is then compared to the untreated control score and a percent disease control is calculated.

[2] = 0.1 ppm in agar, 19 - 20 °C, 4 to 5 days
[3] = 1 ppm in agar, 19 - 20 °C, 4 to 5 days
[4] = 10 ppm in agar, 19 - 20 °C, 4 to 5 days
[5] = rate 0.02mg/pot, wheat, soil infested with Ggt, after four weeks
[6] = rate 0.1 (head prints ppm, head line ends mg/pot), wheat, soil infested with Ggt, after four weeks, N = no control
[7] = rate 0.5 (head prints ppm, head line ends mg/pot), wheat, soil infested with Ggt, after four weeks, N = no control

| SMILES | inhibition at 0.1 ppm [1, 2] [%] | inhibition at 1 ppm [1, 3] [%] | inhibition at 10 ppm [1, 4] [%] | IC50 [1] [µg/mL] | pest or weed control at 0.02 mg/pot (Ggt; [5]) [%] | pest or weed control at 0.1 mg/pot (Ggt; [6]) [%] | pest or weed control at 0.5 mg/pot (Ggt; [7]) [%] | inhibition at 0.1 ppm [1] [%] | inhibition at 1 ppm [1] [%] | inhibition at 10 ppm [1] [%] | pest or weed control at 0.1 mg/pot (Ggt; soil) [%] | pest or weed control at 0.5 mg/pot (Ggt; soil) [%] | pest or weed control at 0.02 mg/pot (Ggt; soil) [%] |
| --- | --- | --- | --- | --- | --- | --- | --- | --- | --- | --- | --- | --- | --- |
| CCNC(=O)c1c(OC(CC)(CC)CC)ccc2ccccc12 [Example 32, N-ethyl 2-[(1,1-diethylpropyl)oxy]-1-naphthamide] | 87 | 97 | 97 | 0.0422 (≈ 0.135 µM) | 15 | 35 | 58 | – | – | – | – | – | – |
| CCN(SC)C(=O)c1c([Si](C)(C)C)sc2ccccc12 [Example 16, N-Ethyl-N-(methylthio)-2-(trimethylsilyl)benzo[b]-thiophene-3-carboxamide] | – | – | – | – | – | – | – | 100 | 100 | 100 | 87 | 93 | – |
| CCNC(=O)c1c(NC(C)(CC)CC)ccc2ccccc12 [Example 23, N-ethyl 2-[(1,1-diethylethyl)amino]-1-naphthamide] | 21 | 21 | 43 | 0.00662 (≈ 0.0222 µM) | 50 | 65 | 85 | – | – | – | – | – | – |
| CCNC(=O)c1c([Si](C)(C)C)ccc2ccccc12 [Example 4, N-Ethyl-2-(trimethylsilyl)-1-naphthalenecarboxamide] | – | – | – | – | – | – | – | 100 | 100 | 100 | 85 | 99 | – |
| CCNC(=O)c1c(OC(C)(CC)CC)ccc2ccccc12 [Example 28, N-ethyl 2-[(1,1-diethylethyl)oxy]-1-naphthamide] | 74 | 96 | 96 | – | 19 | 40 | 78 | – | – | – | – | – | – |
| C=CCNC(=O)c1c(OC2(C)CCCCC2)ccc2ccccc12 [Example 39, N-allyl 2-[(1-methyl-1-cyclohexyl)oxy]-1-naphthamide] | 57 | 96 | 96 | – | 0 | 11 | 28 | – | – | – | – | – | – |
| CC(C)(C)Nc1ccc2ccccc2c1C(=O)NCCBr [Example 18, N-(2-bromoethyl) 2-[(1,1-dimethylethyl)amino]-1-naphthamide] | – | – | – | – | – | – | – | 10 | 88 | 98 | 0 | 14 | 0 |
| CCN(CC)C(=O)c1c([Si](C)(C)CI)ccc2ccccc12 [Example 2, N,N-Diethyl-2-[(iodomethyl)dimethylsilyl]-1-naphthalenecarboxamide] | – | – | – | – | – | – | – | 15 | 46 | 100 | < 0 | < 0 | – |
| CCNC(=O)c1cc2ccccc2cc1[Si](C)(C)C [Example 5, N-Ethyl-3-(trimethylsilyl)-2-naphthalenecarboxamide] | – | – | – | – | – | – | – | 0 | 94 | 100 | 18 | 27 | – |
| CCNC(=O)c1sc2ccccc2c1[Si](C)(C)C [Example 9, N-Ethyl-3-(trimethylsilyl)benzo[b]thiophene-2-carboxamide] | – | – | – | – | – | – | – | 0 | 0 | 88 | < 0 | – | – |
| CCNC(=O)c1c([Si](C)(C)C)cc(F)c2ccccc12 [Example 1, N-Ethyl-4-fluoro-2-(trimethylsilyl)-1-naphthalenecarboxamide] | – | – | – | – | – | – | – | 0 | 79 | 79 | 18 | – | – |
| CCC(C)(C)Nc1ccc2ccccc2c1C(=O)NCCBr [Example 19, N-(2-bromoethyl) 2-[(1,1-dimethylpropyl)amino]-1-naphthamide] | – | – | – | – | – | – | – | 68 | 93 | 98 | 0 | 22 | 0 |
| CCNC(=O)n1c([Si](C)(C)C)cc2ccccc21 [Example 7, N-Ethyl-2-(trimethylsilyl)-1H-indole-1-carboxamide] | – | – | – | – | – | – | – | 88 | 100 | 100 | 40 | 79 | – |
| CCNC(=O)c1c(OC2(C)CCCC2)ccc2ccccc12 [Example 36, N-ethyl 2-[(1-methyl-1-cyclopentyl)oxy]-1-naphthamide] | 76 | 98 | 100 | – | 0 | 0 | 60 | – | – | – | – | – | – |
| CCN(CC)C(=O)c1c([Si](C)(C)C)ccc2ccccc12 [Example 3, N,N-Diethyl-2-(trimethylsilyl)-1-naphthalenecarboxamide] | – | – | – | – | – | – | – | 0 | 0 | 100 | – | 68 | – |
| CCCNC(=O)c1c(OC(C)(CC)CC)ccc2ccccc12 [Example 31, N-propyl 2-[(1,1-diethylethyl)oxy]-1-naphthamide] | 7 | 17 | 98 | – | 0 | 0 | 3 | – | – | – | – | – | – |
